Like-named read-outs stand apart in the source and are kept apart here.

One assay concerns the target T1, hamster SUR1 (Cricetus cricetus, UniProt Q09427).
T1 construct: expressed in transfected cells; host or cells: COS-1 cells, transient (pcDNA vector)
The assay can be described thus: In vitro binding affinity to rodent KATP channels: SUR1 ([3H]glibenclamide displacement, COS cell membranes). As to conditions: hamster SUR1 in COS cell membranes; read-out: Affinity to SUR 1 (converted).

Assay [1] deals with rat perifused pancreatic islets. The assay can be described thus: KATP opening effects through insulin secretion in rat perifused pancreatic islets. The format is cell-based. As to conditions: 11 mM glucose; for % Inhibition 0-30 (insulin secretion): 0-30 minutes; for % Inhibition 30-60 (insulin secretion): 30-60 minutes.
Procedure: Determination of the KATP Opening Effects of Compounds Through Insulin Secretion in Rat Perifused Pancreatic Islets
The animals were maintained on a 12 h light-dark cycle (lights on 06.00-18.00 h) with free access to standard rodent diet (B&K Universal Ltd standard rat and mouse diet (BK 001P), Beekay Feeds, B&K Universal Ltd, Hull, East Riding of Yorkshire) and tap water. The rats were conditioned to this environment for at least one week before experimentation.
Experimental procedures: After the rats were sacrificed, the branch of the bile duct leading to the liver and the duodenal end of the duct in the pancreas were clamped and the pancreas distended by injection of ice-cold 0.9 mg/ml collagenase solution into the bile duct. […] Following incubation, 10 ml of cold buffer was added and the suspension shaken vigorously by hand for 1 min. The islets were allowed to settle for 5 min on ice and washed three times using ice-cold buffer. Well-formed and good-sized islets from three rats were hand-picked (under a low power microscope) and pooled and a final selection of islet transferred to the perifusion apparatus.
Two experiments were performed in parallel in two identical, independent sets of perifusion apparatus each consisting of sufficient number of chambers. Each chamber was loaded with 20 hand-picked islets. Islets were perifused for an initial 30 min period in media containing 4 mM glucose. Perifusate was then collected at 2 min intervals for the remainder of the experiment. […] Perifusate fractions were stored at −75° C. until required for insulin assay. Insulin content of fractions were assayed using a 96-well ELISA assay (Mercodia). Initial insulin assays were performed in triplicate on three pooled fractions from each chamber.
Data were initially expressed as a simple mean of the three experiments for insulin secretion (pg/islet/min) and multiple t-tests (against the corresponding vehicle time period) used to determine potential significant effects of treatments. Alternatively, data were also calculated as a % vehicle effect for each experimental day. This latter approach was deemed to be the more powerful analysis as it corrected for the day to day variation in insulin release from the islets.
Assay [2] concerns the target human cannabinoid CB2 receptor (Homo sapiens, UniProt P34972). The assay can be described thus: biochemical. In kind it is binding. The protocol: 3. In Vitro Binding Affinity of the Test Compounds to CB2 Receptors
After incubation of a freshly prepared cell membrane preparation with the [^3H]-ligand, with or without the addition of the compounds described herein, separation of bound and free ligand is performed by filtration over glass-fiber filters. Radioactivity on the filter is measured by liquid scintillation counting.

A further assay deals with rat SUR2A (Rattus norvegicus, UniProt Q63563). The experiment in a line: In vitro binding affinity to rodent KATP channels: SUR2A ([3H]P1075 / [3H]glibenclamide displacement, COS cell membranes). In short, it runs like this: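 COS-cell membranes transiently expressing rat SUR2A incubated 1 h at room temperature in 50 mM Tris pH 7.4, ~0.7 mM free Mg2+, with 3 nM [3H]P1075 (wild type) or [3H]glibenclamide (SUR2AY1205S); filtration read-out. Ki from IC50, reported as pKi; 9-15 concentrations per curve.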

[3] abbreviates: cloned human CB2 receptor expressed in CHO cells, read-out: Affinity to CB2 (converted).

rat SUR2A, sequence (Q63563 whole entry): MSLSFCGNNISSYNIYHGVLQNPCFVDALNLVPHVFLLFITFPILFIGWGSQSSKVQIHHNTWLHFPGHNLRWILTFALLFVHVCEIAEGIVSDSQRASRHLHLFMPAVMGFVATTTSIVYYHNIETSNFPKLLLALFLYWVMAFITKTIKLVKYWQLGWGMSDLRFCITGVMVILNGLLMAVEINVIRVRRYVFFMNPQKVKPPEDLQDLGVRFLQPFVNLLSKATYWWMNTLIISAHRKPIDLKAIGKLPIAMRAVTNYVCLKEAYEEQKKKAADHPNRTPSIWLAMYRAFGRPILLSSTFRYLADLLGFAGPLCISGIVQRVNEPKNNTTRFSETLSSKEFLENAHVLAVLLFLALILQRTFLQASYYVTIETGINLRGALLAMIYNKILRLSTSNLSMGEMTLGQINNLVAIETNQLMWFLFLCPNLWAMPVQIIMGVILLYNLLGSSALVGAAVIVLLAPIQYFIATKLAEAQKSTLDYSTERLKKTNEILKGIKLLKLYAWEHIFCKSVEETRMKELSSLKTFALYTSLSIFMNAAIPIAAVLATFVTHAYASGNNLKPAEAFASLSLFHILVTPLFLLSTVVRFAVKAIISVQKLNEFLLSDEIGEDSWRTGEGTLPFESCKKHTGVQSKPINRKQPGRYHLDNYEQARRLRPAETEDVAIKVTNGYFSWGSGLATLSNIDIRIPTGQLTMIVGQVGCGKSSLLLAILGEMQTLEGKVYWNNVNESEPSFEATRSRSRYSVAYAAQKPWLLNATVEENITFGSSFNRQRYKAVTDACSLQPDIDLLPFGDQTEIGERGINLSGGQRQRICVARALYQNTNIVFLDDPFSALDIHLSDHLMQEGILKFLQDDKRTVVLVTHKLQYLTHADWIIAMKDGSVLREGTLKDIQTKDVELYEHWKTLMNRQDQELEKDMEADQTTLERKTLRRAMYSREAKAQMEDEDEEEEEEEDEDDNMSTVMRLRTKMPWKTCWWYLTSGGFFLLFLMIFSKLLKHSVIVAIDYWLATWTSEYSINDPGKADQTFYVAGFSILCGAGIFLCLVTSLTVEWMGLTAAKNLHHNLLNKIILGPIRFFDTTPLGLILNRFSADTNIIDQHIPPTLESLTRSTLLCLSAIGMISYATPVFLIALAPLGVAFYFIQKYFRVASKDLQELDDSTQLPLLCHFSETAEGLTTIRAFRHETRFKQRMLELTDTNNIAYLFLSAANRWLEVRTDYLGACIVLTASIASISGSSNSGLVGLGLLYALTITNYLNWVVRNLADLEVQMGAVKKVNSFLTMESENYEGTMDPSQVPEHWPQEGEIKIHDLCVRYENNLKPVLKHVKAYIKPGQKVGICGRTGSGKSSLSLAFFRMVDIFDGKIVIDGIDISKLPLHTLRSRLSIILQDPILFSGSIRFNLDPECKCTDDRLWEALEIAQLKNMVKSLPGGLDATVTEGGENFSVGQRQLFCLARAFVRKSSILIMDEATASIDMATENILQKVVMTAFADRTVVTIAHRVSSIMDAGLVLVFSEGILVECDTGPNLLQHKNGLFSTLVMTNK
T1 sequence (Q09427 whole entry): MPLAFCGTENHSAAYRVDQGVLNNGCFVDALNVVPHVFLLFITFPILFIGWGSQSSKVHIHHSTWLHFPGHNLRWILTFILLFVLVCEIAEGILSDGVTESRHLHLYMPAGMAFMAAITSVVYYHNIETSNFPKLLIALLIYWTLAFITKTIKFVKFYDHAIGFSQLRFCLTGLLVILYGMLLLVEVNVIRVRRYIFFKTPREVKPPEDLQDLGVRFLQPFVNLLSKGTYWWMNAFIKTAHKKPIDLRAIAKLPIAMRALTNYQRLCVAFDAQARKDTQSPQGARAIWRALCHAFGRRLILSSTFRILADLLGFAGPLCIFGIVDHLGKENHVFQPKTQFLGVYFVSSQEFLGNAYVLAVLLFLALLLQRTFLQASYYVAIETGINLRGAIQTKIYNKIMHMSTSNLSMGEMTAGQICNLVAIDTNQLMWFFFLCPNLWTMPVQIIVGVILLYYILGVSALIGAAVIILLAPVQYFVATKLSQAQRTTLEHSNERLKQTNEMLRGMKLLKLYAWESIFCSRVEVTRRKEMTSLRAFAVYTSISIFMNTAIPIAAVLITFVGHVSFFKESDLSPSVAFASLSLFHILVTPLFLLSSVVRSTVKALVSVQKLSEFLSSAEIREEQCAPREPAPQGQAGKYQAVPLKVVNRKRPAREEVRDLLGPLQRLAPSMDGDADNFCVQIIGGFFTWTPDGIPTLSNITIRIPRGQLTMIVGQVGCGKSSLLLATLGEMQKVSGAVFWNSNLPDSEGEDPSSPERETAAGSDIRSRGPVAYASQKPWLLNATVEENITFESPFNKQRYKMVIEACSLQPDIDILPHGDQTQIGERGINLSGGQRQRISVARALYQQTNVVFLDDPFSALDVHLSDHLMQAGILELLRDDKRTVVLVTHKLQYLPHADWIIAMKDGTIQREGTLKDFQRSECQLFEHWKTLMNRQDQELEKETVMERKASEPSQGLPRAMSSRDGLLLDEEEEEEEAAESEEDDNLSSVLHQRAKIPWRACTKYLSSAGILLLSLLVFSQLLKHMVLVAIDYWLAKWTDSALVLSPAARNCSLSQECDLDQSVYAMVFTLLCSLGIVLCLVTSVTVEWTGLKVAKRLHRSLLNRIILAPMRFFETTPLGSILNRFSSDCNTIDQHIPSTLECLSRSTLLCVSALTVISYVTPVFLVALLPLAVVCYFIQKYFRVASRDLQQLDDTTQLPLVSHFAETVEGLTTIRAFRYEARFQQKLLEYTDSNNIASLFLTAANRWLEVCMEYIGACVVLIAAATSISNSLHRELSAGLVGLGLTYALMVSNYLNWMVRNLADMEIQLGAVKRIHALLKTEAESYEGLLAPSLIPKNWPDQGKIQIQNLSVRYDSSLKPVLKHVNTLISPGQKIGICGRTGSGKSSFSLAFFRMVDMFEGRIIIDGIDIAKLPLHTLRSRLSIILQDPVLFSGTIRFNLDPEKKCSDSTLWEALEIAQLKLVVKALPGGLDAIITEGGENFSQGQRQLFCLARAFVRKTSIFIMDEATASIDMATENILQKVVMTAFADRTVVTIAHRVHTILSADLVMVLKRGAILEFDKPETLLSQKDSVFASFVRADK
human cannabinoid CB2 receptor, sequence (P34972 whole entry): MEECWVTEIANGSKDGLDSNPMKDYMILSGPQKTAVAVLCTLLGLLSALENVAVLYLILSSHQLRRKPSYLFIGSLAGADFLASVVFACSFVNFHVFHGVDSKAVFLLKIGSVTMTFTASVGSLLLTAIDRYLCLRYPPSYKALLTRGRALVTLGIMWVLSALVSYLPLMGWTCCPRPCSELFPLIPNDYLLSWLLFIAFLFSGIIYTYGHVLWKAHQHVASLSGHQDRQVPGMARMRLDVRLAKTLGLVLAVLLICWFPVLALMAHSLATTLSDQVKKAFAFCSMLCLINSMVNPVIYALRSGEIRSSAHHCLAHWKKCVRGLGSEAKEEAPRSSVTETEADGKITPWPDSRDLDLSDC

Take `CN/C(=N\S(=O)(=O)c1ccc(Cl)cc1)N1C[C@H](c2ccccc2)C(c2ccc(Cl)cc2)=N1`: at hamster SUR1, the Ki was 0.501 µM. Also, in assay [1], the “% Inhibition 0-30 (insulin secretion)” value was found to be 42% and the “% Inhibition 30-60 (insulin secretion)” value was 22%.

Consider `CON/C(=N\S(=O)(=O)c1ccc(Cl)cc1)N1C[C@H](c2cccc(F)c2)C(c2ccc(Cl)cc2)=N1` (stereo in doubt) [4-Chloro-N-{[3-(4-chloro-phenyl)-4-(3-fluoro-phenyl)-4,5-dihydro-pyrazol-1-yl]-methoxyamino-methylene}-benzenesulfonamide], for which, in assay [1], the “% Inhibition 0-30 (insulin secretion)” value worked out at 90% and the “% Inhibition 30-60 (insulin secretion)” value is listed as 95%.

For `CN/C(=N\S(=O)(=O)c1ccc(Cl)cc1)N1C[C@@H](c2ccccc2)C(c2ccc(Cl)cc2)=N1` (stereo in doubt) [4-Chloro-N-{[3-(4-chloro-phenyl)-4-phenyl-4,5-dihydro-pyrazol-1-yl]-methylamino-methylene}-benzenesulfonamide], in assay [1], the “% Inhibition 0-30 (insulin secretion)” value is 59% and the “% Inhibition 30-60 (insulin secretion)” value came to 25%.

On to `CCCCCCC(C)(C)c1ccc([C@@H]2C[C@H](O)CC[C@H]2CCCO)c(O)c1` (stereo in doubt) [CP55940, 5-(1,1-Dimethyl-heptyl)-2-[5-hydroxy-2-(3-hydroxy-propyl)-cyclohexyl]-phenol, reference compound], for which the Ki at hamster SUR1 was 5.01 µM. Further, in assay [1], the “% Inhibition 0-30 (insulin secretion)” value worked out at 91% and the “% Inhibition 30-60 (insulin secretion)” value worked out at 56%.

In the case of `CSc1c(C(=O)NN2CCCCC2)nc(-c2ccccc2Cl)n1-c1ccc(Cl)cc1` [1-(4-Chloro-phenyl)-2-(2-chloro-phenyl)-5-methylsulfanyl-1H-imidazole-4-carboxylic acid piperidin-1-ylamide], the Ki at hamster SUR1 was 0.00631 µM. In assay [2] (setting [3]), the Ki was 6.31 µM. In assay [1], the “% Inhibition 0-30 (insulin secretion)” value was 56% and the “% Inhibition 30-60 (insulin secretion)” value is reported as 36%.

For the molecule `CN1CCC(CNC(=NS(=O)(=O)c2ccc(Cl)cc2)N2CC(c3ccccc3)C(c3ccc(Cl)cc3)=N2)C1` (centres unmarked) [4-Chloro-N-{[3-(4-chloro-phenyl)-4-phenyl-4,5-dihydro-pyrazol-1-yl]-[(1-methyl-pyrrolidin-3-ylmethyl)-amino]-methylene]-benzenesulfonamide], the Ki (on hamster SUR1; in assay [2] (setting [3])) was 1 µM in each case. On rat SUR2A, the pKi came out at 4.8.

In the case of `O=S(=O)(N=C(NCc1cccnc1)N1CC(c2ccccc2)C(c2ccc(Cl)cc2)=N1)c1ccc(Cl)cc1` (centres unmarked) [4-Chloro-N-{[3-(4-chloro-phenyl)-4-phenyl-4,5-dihydro-pyrazol-1-yl]-[(pyridin-3-ylmethyl)-amino]-methylene}-benzenesulfonamide], the figures for the Ki (at hamster SUR1; in assay [2] (setting [3])) were 1.26 µM and 0.501 µM, respectively. The negative logarithm of the Ki (pKi) at rat SUR2A is recorded as 5.7.

For the molecule `Cc1c(C=C(c2cc(F)cc(F)c2)S(C)(=O)=O)nn(-c2ccc(Cl)cc2Cl)c1-c1ccc(Br)cc1` [5-(4-Bromo-phenyl)-1-(2,4-dichloro-phenyl)-3-(2-(3,5-difluoro-phenyl)-2-methanesulfonyl-vinyl]-4-methyl-1H-pyrazole], the Ki on hamster SUR1 was 100 µM; in assay [2] (setting [3]), 1.26 µM. For the same molecule, the negative-log Ki (pKi) at rat SUR2A was found to be 4.0.

`O=C(NN1CCCCC1)C1=NN(c2ccc(Cl)cc2Cl)C(c2ccc(Cl)cc2)C1` (centres unmarked) [5-(4-Chloro-phenyl)-1-(2,4-dichloro-phenyl)-4,5-dihydro-1H-pyrazole-3-carboxylic acid piperidine-1-ylamide]: the Ki was 3.98 µM on hamster SUR1 and 0.794 µM in assay [2] (setting [3]). For the same molecule, the negative logarithm of the Ki (pKi) on rat SUR2A is listed as 5.6.

Take `Cn1c(C(=O)NN2CCCCC2)nc(-c2cc(Cl)ccc2Cl)c1-c1ccc(Cl)cc1` [5-(4-Chloro-phenyl)-4-(2,5-dichloro-phenyl)-1-methyl 1H-imidazole-2-carboxylic acid piperidin-1-ylamide]: the Ki is 25.1 µM at hamster SUR1 and 0.398 µM in assay [2] (setting [3]). The same molecule yielded a negative-log Ki (pKi) on rat SUR2A of 5.0.

`CN1CCCCC1Cn1cc(C(=O)c2cc([N+](=O)[O-])ccc2I)c2ccccc21` (centres unmarked) [AM-1241, (2-Iodo-5-nitro-phenyl)-[1-(1-methyl-piperidin-2-ylmethyl)-1H-indol-3-yl]-methanone, reference compound]: the Ki is 3.98 µM on hamster SUR1 and 0.0158 µM in assay [2] (setting [3]). The “% Inhibition 0-30 (insulin secretion)” value in assay [1] was found to be 97%. Besides, the “% Inhibition 30-60 (insulin secretion)” value in assay [1] was found to be 74%.

With `C[C@H](NS(C)(=O)=O)c1ccc(S(=O)(=O)c2ccc(Cl)cc2S(=O)(=O)c2ccccc2F)cc1` [N-(1-{4-[4-Chloro-2-(2-fluoro-benzenesulfonyl)-benzenesulfonyl]-phenyl}-ethyl)-methanesulfonamide, reference compound], the values for the Ki (at hamster SUR1; in assay [2]) were 1.26 µM and 0.000501 µM, respectively. This molecule registered a negative logarithm of the Ki (pKi) at rat SUR2A of 4.7.

As to `CN/C(=N\S(=O)(=O)c1ccc(C(F)(F)F)cc1)N1CC(c2cccnc2)C(c2ccc(Cl)cc2)=N1` (centres unmarked) [N-([3-(4-Chloro-phenyl)-4-pyridin-3-yl-4,5-dihydro-pyrazol-1-yl]-methylamino-methylene}-4-trifluoromethyl-benzenesulfonamide], on hamster SUR1, the Ki was 0.501 µM. At rat SUR2A, this molecule showed a pKi of 4.9. Further, in assay [1], the “% Inhibition 0-30 (insulin secretion)” value amounted to 58% and the “% Inhibition 30-60 (insulin secretion)” value is given as 31%.

Consider `NC(=NS(=O)(=O)c1ccc(Cl)cc1)N1CC(c2ccccc2)C(c2ccc(Cl)cc2)=N1` (centres unmarked) [N-{Amino-[3-(4-chloro-phenyl)-4-phenyl-4,5-dihydro-pyrazol-1-yl]-methylene}-4-chloro-benzenesulfonamide], for which the Ki at hamster SUR1 is 1 µM; in assay [2], 0.398 µM. Further, the pKi on rat SUR2A came to 5.1.

Consider `CN/C(=N\S(=O)(=O)N(C)C)N1CC(c2cccc(F)c2)C(c2ccc(Cl)cc2)=N1` (centres unmarked) [N-{[3-(4-Chloro-phenyl)-4-(3-fluoro-phenyl)-4,5-dihydro-pyrazol-1-yl]-methylamino-methylene}-N,N-dimethyl-sulfonamide], for which, on hamster SUR1, the Ki was 0.1 µM. Moreover, the pKi at rat SUR2A came out at 5.3. Further, in assay [1], the “% Inhibition 0-30 (insulin secretion)” value came out at 72% and the “% Inhibition 30-60 (insulin secretion)” value was found to be 77%.

As to `CNC(=NS(=O)(=O)N1CCCCC1)C1=NN(c2ccc(Cl)cc2)C(c2ccccc2)C1` (centres unmarked) [Piperidine-1-sulfonic acid [1-(4-chloro-phenyl)-5-phenyl-4,5-dihydro-1H-pyrazol-3-yl]-methylamino-methyleneamide], the Ki on hamster SUR1 is 0.794 µM. The molecule also displayed a negative logarithm of the Ki (pKi) at rat SUR2A of 4.5. Besides, in assay [1], the “% Inhibition 0-30 (insulin secretion)” value came to 84% and the “% Inhibition 30-60 (insulin secretion)” value is on record as 47%.

For `CNC(=NS(=O)(=O)N1CCCCC1)N1CC(c2cccc(F)c2)C(c2ccc(Cl)cc2)=N1` (centres unmarked) [Piperidine-1-sulfonic acid [3-(4-chloro-phenyl)-4-(3-fluoro-phenyl)-4,5-dihydro-pyrazol-1-yl]-methylamino-methyleneamide], the Ki is 31.6 µM on hamster SUR1 and 0.794 µM in assay [2] (setting [3]). Also, the pKi at rat SUR2A stood at 6.3.

With `CN(C)CCNC(=NS(=O)(=O)N1CCCCC1)N1CC(c2ccccc2)C(c2ccc(Cl)cc2)=N1` (centres unmarked) [Piperidine-1-sulfonic acid [3-(4-chloro-phenyl)-4-phenyl-4,5-dihydro-pyrazol-1-yl]-(2-dimethylamino-ethylamino)-methyleneamide], on hamster SUR1, the Ki is 100 µM. This molecule also registered a negative-log Ki (pKi) at rat SUR2A of 4.0. In addition, in assay [1], the “% Inhibition 0-30 (insulin secretion)” value is listed as 71% and the “% Inhibition 30-60 (insulin secretion)” value is reported as 64%.

For the molecule `Cc1c(C(=O)c2cccc3ccccc23)c2cccc3c2n1[C@H](CN1CCOCC1)CO3` [R(+)-WIN55212-2, (2-Methyl-3-morpholin-4-ylmethyl-3,4-dihydro-5-oxa-2a-azacenaphthylen-1-yl)-naphthalen-1-yl-methanone, reference compound], at hamster SUR1, the Ki is 39.8 µM. In assay [1], the “% Inhibition 0-30 (insulin secretion)” value amounted to 80% and the “% Inhibition 30-60 (insulin secretion)” value worked out at 35%.

Consider `Cc1c(C(=O)NN2CCCCC2)nn(-c2ccc(Cl)cc2Cl)c1-c1ccc(Cl)cc1` [Rimonabant, 5-(4-Chloro-phenyl)-1-(2,4-dichloro-phenyl)-4-methyl-1H-pyrazole-3-carboxylic acid piperidin-1-ylamide, reference compound], for which the Ki on hamster SUR1 is 5.01 µM. In assay [1], the “% Inhibition 0-30 (insulin secretion)” value came to 22% and the “% Inhibition 30-60 (insulin secretion)” value was 18%.

For the molecule `Cc1c(C(=O)c2cccc3ccccc23)c2cccc3c2n1[C@H](CN1CCOCC1)CO3` [drawing 112, (2-Methyl-3-morpholin-4-ylmethyl-3,4-dihydro-5-oxa-2a-azacenaphthylen-1-yl)-naphthalen-1-yl-methanone, reference compound], in assay [1], the “% Inhibition 0-30 (insulin secretion)” value is recorded as 69% and the “% Inhibition 30-60 (insulin secretion)” value came out at 40%.

As to `CN/C(=N\S(=O)(=O)N1CCOCC1)N1CC(c2ccccc2)C(c2ccc(Cl)cc2)=N1` (centres unmarked) [drawing 118, Morpholine-4-sulfonic acid [3-(4-chloro-phenyl)-4-phenyl-4,5-dihydro-pyrazol-1-yl]-methylamino-methyleneamide], in assay [1], the “% Inhibition 0-30 (insulin secretion)” value was found to be 83% and the “% Inhibition 30-60 (insulin secretion)” value turned out to be 91%.

For orientation: pKi means −log10 of the Ki, conventionally taken in molar units.

The record behind these values is US20070254863A1 (priority 2006, published 2007).
